# Where “and” joins values, the source holds several entries; their conditions need not be identical. Identical values can stand only once.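 Method: 48-hour compound exposure of cells in 96-well plates, five concentrations, linear interpolation of endpoints. GI50 is the concentration that inhibits growth by half. Definition used: TGI = concentration required for complete inhibition of growth.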
# System: TK-10 renal
# Assay: NCI tumour cell line growth inhibition, 48 h
Structure (SMILES),GI50 [µM],TGI [µM]
CCC[CH2][Sn]1([CH2]CCC)[O]Cc2nc(C)ccc2[O]1,3.97,14.7
O=c1/c(=C/c2ccco2)sc2nc3ccccc3n12,> 10,> 100
COc1ccc(/C=C/c2nccc3ccccc23)cc1OC,–,> 10
C/C(CC(=O)Nc1ccc(C)cc1C)=N/N=C(N)N,–,> 100

# System: SNB-19 CNS
# Assay: NCI tumour cell line growth inhibition, 48 h
Structure (SMILES),TGI,GI50
COC(=O)c1c/c(=N\NC(=O)CC(=O)Nc2ccccc2OC)c2ccccc2o1,> 100 µM,–
Cn1c2ccccc2c2c(-c3ccccc3)[n+]3ccncc3nc21,> 100 µM,51.8 µM
NC(CCC(=O)NC(CSSCCCCS(=O)O)C(=O)NCC(=O)O)C(=O)O (centres undefined),> 100 µM,–
COC12C=C(C)C(CC1)CC2C(=O)O (centres undefined),> 100 µM,–
COc1ccc(-c2cnnc3c(-c4cccc(C(F)(F)F)c4)cnn23)cc1,7.44 µM,2.45 µM
OCC(O)CC[CH2][Sn]([Br])([c]1ccccc1)[c]1ccccc1 (centres undefined),> 100 µM,> 100 µM
CCc1ccc(/C=C\c2cc(OC)c(OC)c(OC)c2)cc1,–,0.0176 µM
O=c1c2cc([N+](=O)[O-])ccc2sc2ccsc12,> 100 µM,–
C=CCCCCCCCCC(=O)[O][Sn]([CH2]CCC)([CH2]CCC)[CH2]CCC,0.384 µM,0.198 µM
COc1ccc(C2=CC3CCC2C3)cc1 (centres undefined),> 100 µM,–
COc1ccc(/C=C/CN(C)CCc2ccccc2)cc1OC,> 100 µM,–
[Cl-].[Dy+3].[O-]/N=C(\c1ccccc1)c1ccccn1.[O-]/N=C(\c1ccccc1)c1ccccn1.[O-]/N=C(\c1ccccc1)c1ccccn1,> 100 µM,38 µM
COc1ccc(/C(COc2c(-c3ccccc3)oc3ccccc3c2=O)=N\O)cc1,> 50 µM,17.5 µM
NC(=O)C(=O)N/N=C(\CC1(O)C(=O)Nc2ccccc21)c1ccc2ccccc2c1 (centres undefined),> 100 µM,–
Cc1cc2c(cc1C)[n+](=O)c(C(=O)C/C(=N/NC(=O)CC#N)C(=O)Nc1ccccc1C(F)(F)F)c(C)n2[O-],> 100 µM,–
COc1cc([N+](=O)[O-])cc2c3c(n(C)c12)[C@@]1(C)CCC2c4ccc(OCc5ccccc5)cc4CCC2C1C3 (some centres undefined),> 100 µM,46.5 µM
COC(=O)/C(=N/NC(=O)C[N+](C)(C)C)C(C(=O)OC)C(=O)C(=O)Nc1ccc(F)cc1 (centres undefined),> 100 µM,–
CC[C@@H]1C(=O)N(C)c2cnc(Nc3ccc(C(=O)NC4CCN(C)CC4)cc3OC)nc2N1C1CCCC1,> 10 µM and 20.3 µM,0.0058 µM and < 0.01 µM
O=C(c1ccccc1)c1nnc(C(=O)c2ccccc2)nn1,> 344 µM,–

Structure (SMILES),TGI,GI50
Brc1cccc(C=NC23CC4CC(CC(C4)C2)C3)c1,> 100 µM,–
Nc1nc(Cl)c2ncn(Cc3ccc(C45CC6CC(CC(C6)C4)C5)c(O)c3)c2n1,22.8 µM,6.53 µM
CCC(C)c1c(Cl)nc(Cl)nc1Cl (centres undefined),30.7 µM,–
CC(C)c1nc(CN(C)C(=O)N[C@H](C(=O)N[C@@H](Cc2ccccc2)C[C@H](O)[C@H](Cc2ccccc2)NC(=O)OCc2cncs2)C(C)C)cs1,> 89 µM,26.4 µM
CCC[CH2][Sn]([CH2]CCC)([O]C(=O)c1cccnc1SC)[O]C(=O)c1cccnc1SC,2.78 µM,1.46 µM
O=C1O[C@@H](c2ccc3c(c2)OCO3)C2C(=O)O[C@@H](c3ccc4c(c3)OCO4)C12 (some centres undefined),> 100 µM,–
O=C1CCC(=O)N2CCCCN12,> 100 µM,–
CC(C)C(=O)NC(=S)Nc1ccc([N+](=O)[O-])cc1C#N,> 100 µM,–
N#Cc1cc([N+](=O)[O-])ccc1NC(=O)C(=O)Nc1n[nH]c(N)n1,> 100 µM,–
O=C(/C=C/c1c(O)ccc2ccccc12)c1cccc(O)c1,> 100 µM,–
CC1=NN(C(=O)Nc2ccccc2)C(=O)C2CCC(=O)N12 (centres undefined),> 100 µM,–
COC(=O)C1Cc2c(n(Cc3ccccc3)c3ccccc23)C(CCC(=O)O)N1C(C)C (centres undefined),> 100 µM,–
O=C(O)CNS(=O)(=O)c1ccc(NCc2ccccc2)cc1,> 100 µM,–
C[C@]12CC[C@H]3[C@@H](CC=C4C[C@@H](O)CC[C@@]43C)[C@@H]1CC[C@@H]2N(CCO)CCO,> 100 µM,–
CC(C)(C)C1C=C(Sc2ccccc2)C(=O)O1 (centres undefined),> 100 µM,–
CCC[CH2][Sn]1([CH2]CCC)[O]Cc2nc(C)ccc2[O]1,14.9 µM,3.95 µM
O=c1/c(=C/c2ccco2)sc2nc3ccccc3n12,> 100 µM,> 100 µM
COc1ccc(/C=C/c2nccc3ccccc23)cc1OC,> 10 µM,–
O=C1CCC2(c3ccc(F)cc3)Nc3cc(Cl)ccc3N12 (centres undefined),> 100 µM,–

# System: SR leukemia
# Assay: NCI tumour cell line growth inhibition, 48 h
Structure (SMILES),TGI [µM],GI50
COC(=O)c1c/c(=N\NC(=O)CC(=O)Nc2ccccc2OC)c2ccccc2o1,> 100,–
COC12C=C(C)C(CC1)CC2C(=O)O (centres undefined),> 100,–
COc1ccc(-c2cnnc3c(-c4cccc(C(F)(F)F)c4)cnn23)cc1,> 100,> 100 µM
OCC(O)CC[CH2][Sn]([Br])([c]1ccccc1)[c]1ccccc1 (centres undefined),> 100,> 100 µM
CCc1ccc(/C=C\c2cc(OC)c(OC)c(OC)c2)cc1,0.336,–
COc1ccc(C2=CC3CCC2C3)cc1 (centres undefined),> 100,–
NC(=O)C(=O)N/N=C(\CC1(O)C(=O)Nc2ccccc21)c1ccc2ccccc2c1 (centres undefined),44.5,–
COC(=O)/C(=N/NC(=O)C[N+](C)(C)C)C(C(=O)OC)C(=O)C(=O)Nc1ccc(F)cc1 (centres undefined),> 100,–
CC[C@@H]1C(=O)N(C)c2cnc(Nc3ccc(C(=O)NC4CCN(C)CC4)cc3OC)nc2N1C1CCCC1,–,0.00182 µM and < 0.01 µM
O=C(c1ccccc1)c1nnc(C(=O)c2ccccc2)nn1,128,–
CC(C)C(=O)NC(=S)Nc1ccc([N+](=O)[O-])cc1C#N,> 100,–
O=C(/C=C/c1c(O)ccc2ccccc12)c1cccc(O)c1,> 100,–
CC1=NN(C(=O)Nc2ccccc2)C(=O)C2CCC(=O)N12 (centres undefined),> 100,–
COC(=O)C1Cc2c(n(Cc3ccccc3)c3ccccc23)C(CCC(=O)O)N1C(C)C (centres undefined),> 100,–
CCC[CH2][Sn]1([CH2]CCC)[O]Cc2nc(C)ccc2[O]1,12.7,2.95 µM
O=c1/c(=C/c2ccco2)sc2nc3ccccc3n12,> 10,–
O=C1CCC2(c3ccc(F)cc3)Nc3cc(Cl)ccc3N12 (centres undefined),> 100,–

# System: CAKI-1 renal
# Assay: NCI tumour cell line growth inhibition, 48 h
Structure (SMILES),TGI,GI50
COC(=O)c1c/c(=N\NC(=O)CC(=O)Nc2ccccc2OC)c2ccccc2o1,> 100 µM,–
Cn1c2ccccc2c2c(-c3ccccc3)[n+]3ccncc3nc21,> 100 µM,> 100 µM
NC(CCC(=O)NC(CSSCCCCS(=O)O)C(=O)NCC(=O)O)C(=O)O (centres undefined),> 100 µM,–
COC12C=C(C)C(CC1)CC2C(=O)O (centres undefined),> 100 µM,–
COc1ccc(-c2cnnc3c(-c4cccc(C(F)(F)F)c4)cnn23)cc1,> 100 µM,3.3 µM
OCC(O)CC[CH2][Sn]([Br])([c]1ccccc1)[c]1ccccc1 (centres undefined),> 100 µM,> 100 µM
CCc1ccc(/C=C\c2cc(OC)c(OC)c(OC)c2)cc1,> 100 µM,1.02 µM
C=CCCCCCCCCC(=O)[O][Sn]([CH2]CCC)([CH2]CCC)[CH2]CCC,0.3 µM,0.112 µM
COc1ccc(C2=CC3CCC2C3)cc1 (centres undefined),> 100 µM,–
[Cl-].[Dy+3].[O-]/N=C(\c1ccccc1)c1ccccn1.[O-]/N=C(\c1ccccc1)c1ccccn1.[O-]/N=C(\c1ccccc1)c1ccccn1,> 100 µM,31 µM
NC(=O)C(=O)N/N=C(\CC1(O)C(=O)Nc2ccccc21)c1ccc2ccccc2c1 (centres undefined),> 100 µM,–
Cc1cc2c(cc1C)[n+](=O)c(C(=O)C/C(=N/NC(=O)CC#N)C(=O)Nc1ccccc1C(F)(F)F)c(C)n2[O-],> 100 µM,–
COc1cc([N+](=O)[O-])cc2c3c(n(C)c12)[C@@]1(C)CCC2c4ccc(OCc5ccccc5)cc4CCC2C1C3 (some centres undefined),> 100 µM,86.6 µM
COC(=O)/C(=N/NC(=O)C[N+](C)(C)C)C(C(=O)OC)C(=O)C(=O)Nc1ccc(F)cc1 (centres undefined),> 100 µM,–
CC[C@@H]1C(=O)N(C)c2cnc(Nc3ccc(C(=O)NC4CCN(C)CC4)cc3OC)nc2N1C1CCCC1,> 10 µM and 13.6 µM,0.297 µM and 0.476 µM
O=C(c1ccccc1)c1nnc(C(=O)c2ccccc2)nn1,> 344 µM,–
Brc1cccc(C=NC23CC4CC(CC(C4)C2)C3)c1,> 100 µM,–
Nc1nc(Cl)c2ncn(Cc3ccc(C45CC6CC(CC(C6)C4)C5)c(O)c3)c2n1,4.8 µM,1.77 µM
CC(C)c1nc(CN(C)C(=O)N[C@H](C(=O)N[C@@H](Cc2ccccc2)C[C@H](O)[C@H](Cc2ccccc2)NC(=O)OCc2cncs2)C(C)C)cs1,68.2 µM,31.3 µM
O=C1CCC(=O)N2CCCCN12,> 100 µM,–
CC(C)C(=O)NC(=S)Nc1ccc([N+](=O)[O-])cc1C#N,> 100 µM,–
N#Cc1cc([N+](=O)[O-])ccc1NC(=O)C(=O)Nc1n[nH]c(N)n1,> 100 µM,–

# Reference: PubChem BioAssay (NCI)
